Source: PubChem BioAssay AID248 (DTP/NCI, 2004)
Where “and” joins values, the source holds several entries; their conditions need not be identical. Identical values can stand only once. Inconclusive results and toxic doses are left out. Rule as the data show it: active = T/C of 150% or more; inactive = T/C below 125%.

System: L1210 leukemia ip in BDF1 mice, survival T/C
Assay: NCI In Vivo Anticancer Drug Screen. Data for tumor model L1210 Leukemia (intraperitoneal) in B6D2F1 (BDF1) mice
Conditions: higher = longer survival
Outline: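 Tumor was transplanted into mice, which were then dosed with test compound or vehicle alone. Survival was recorded for each group, and the treated figure was expressed relative to the control figure.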

[1] = endpoint: mean survival time, dose: 200.0 mg/kg/injection, schedule: Q04DX003 (ip), vehicle: Klucel (hydroxypropylcellulose) (HPC)
[2] = endpoint: mean survival time, dose: 100.0 mg/kg/injection, schedule: Q01DX009 (ip), vehicle: saline
[3] = endpoint: mean survival time, dose: 200.0 mg/kg/injection, schedule: Q01DX009 (ip), vehicle: saline
[4] = endpoint: mean survival time, dose: 400.0 mg/kg/injection, schedule: Q01DX009 (ip), vehicle: saline
[5] = endpoint: mean survival time, dose: 100.0 mg/kg/injection, schedule: Q04DX003 (ip), vehicle: saline with Tween-80
[6] = endpoint: mean survival time, dose: 200.0 mg/kg/injection, schedule: Q04DX003 (ip), vehicle: saline with Tween-80
[7] = endpoint: mean survival time, dose: 400.0 mg/kg/injection, schedule: Q04DX003 (ip), vehicle: saline with Tween-80
[8] = endpoint: mean survival time, dose: 100.0 mg/kg/injection, schedule: Q01DX001 (ip), vehicle: saline
[9] = endpoint: mean survival time, dose: 200.0 mg/kg/injection, schedule: Q01DX001 (ip), vehicle: saline
[10] = endpoint: mean survival time, dose: 400.0 mg/kg/injection, schedule: Q01DX001 (ip), vehicle: saline
[11] = endpoint: mean survival time, dose: 50.0 mg/kg/injection, schedule: Q01DX009 (ip), vehicle: saline
[12] = endpoint: mean survival time, dose: 100.0 mg/kg/injection, schedule: Q01DX001 (ip), vehicle: Klucel (hydroxypropylcellulose) (HPC)
[13] = endpoint: mean survival time, dose: 200.0 mg/kg/injection, schedule: Q01DX001 (ip), vehicle: Klucel (hydroxypropylcellulose) (HPC)
[14] = endpoint: mean survival time, dose: 400.0 mg/kg/injection, schedule: Q01DX001 (ip), vehicle: Klucel (hydroxypropylcellulose) (HPC)
[15] = endpoint: mean survival time, dose: 25.0 mg/kg/injection, schedule: Q01DX009 (ip), vehicle: Klucel (hydroxypropylcellulose) (HPC)
[16] = endpoint: mean survival time, dose: 50.0 mg/kg/injection, schedule: Q01DX009 (ip), vehicle: Klucel (hydroxypropylcellulose) (HPC)
[17] = endpoint: mean survival time, dose: 100.0 mg/kg/injection, schedule: Q01DX009 (ip), vehicle: Klucel (hydroxypropylcellulose) (HPC)
[18] = endpoint: mean survival time, dose: 200.0 mg/kg/injection, schedule: Q01DX009 (ip), vehicle: Klucel (hydroxypropylcellulose) (HPC)
[19] = endpoint: mean survival time, dose: 100.0 mg/kg/injection, schedule: Q04DX003 (ip), vehicle: Klucel (hydroxypropylcellulose) (HPC)

Measured: T/C

O=C(NCC(O)CNC(=O)Nc1ccc(C2=NCCCN2)cc1)Nc1ccc(C2=NCCCN2)cc1
inactive: endpoint: mean survival time, dose: 1.25 mg/kg/injection, schedule: Q01DX Z (ip), vehicle: carboxymethylcellulose (CMC) 98 % of control | endpoint: mean survival time, dose: 2.5 mg/kg/injection, schedule: Q01DX Z (ip), vehicle: carboxymethylcellulose (CMC) 101 % of control | endpoint: mean survival time, dose: 5.0 mg/kg/injection, schedule: Q01DX Z (ip), vehicle: carboxymethylcellulose (CMC) 90 % of control | endpoint: mean survival time, dose: 10.0 mg/kg/injection, schedule: Q01DX Z (ip), vehicle: carboxymethylcellulose (CMC) 97 % of control and 106 % of control | endpoint: mean survival time, dose: 20.0 mg/kg/injection, schedule: Q01DX Z (ip), vehicle: carboxymethylcellulose (CMC) 104 % of control

O=C1/C(=C/c2ccc3c(c2)OCO3)C2CCC(N2)/C1=C\c1ccc2c(c1)OCO2
inactive: endpoint: mean survival time, dose: 100.0 mg/kg/injection, schedule: Q01DX001 (ip), vehicle: other 89 % of control | endpoint: mean survival time, dose: 400.0 mg/kg/injection, schedule: Q01DX001 (ip), vehicle: other 101 % of control

COC1CC(OC(=O)c2ccc([N+](=O)[O-])cc2)C(OC(=O)c2ccc([N+](=O)[O-])cc2)C(C)O1 (centres undefined)
inactive: endpoint: mean survival time, dose: 100.0 mg/kg/injection, schedule: Q01DX001 (ip), vehicle: carboxymethylcellulose (CMC) 93 % of control | endpoint: mean survival time, dose: 200.0 mg/kg/injection, schedule: Q01DX001 (ip), vehicle: carboxymethylcellulose (CMC) 102 % of control | endpoint: mean survival time, dose: 400.0 mg/kg/injection, schedule: Q01DX001 (ip), vehicle: carboxymethylcellulose (CMC) 88 % of control

O=C(CCCCC(=O)OCCBr)OCCBr
inactive: endpoint: mean survival time, dose: 20.0 mg/kg/injection, schedule: Q04DX003 (ip), vehicle: Klucel (hydroxypropylcellulose) (HPC) 100 % of control | endpoint: mean survival time, dose: 40.0 mg/kg/injection, schedule: Q04DX003 (ip), vehicle: Klucel (hydroxypropylcellulose) (HPC) 105 % of control | endpoint: mean survival time, dose: 80.0 mg/kg/injection, schedule: Q04DX003 (ip), vehicle: Klucel (hydroxypropylcellulose) (HPC) 114 % of control | [1] 102 % of control

FC(F)(F)C(F)(Cl)C(Cl)(Cl)C(F)(F)F (centres undefined)
inactive: [2] 97 % of control | endpoint: mean survival time, dose: 100.0 mg/kg/injection, schedule: Q04DX003 (ip), vehicle: saline 100 % of control | [3] 97 % of control | endpoint: mean survival time, dose: 200.0 mg/kg/injection, schedule: Q04DX003 (ip), vehicle: saline 101 % of control | [4] 97 % of control | endpoint: mean survival time, dose: 400.0 mg/kg/injection, schedule: Q04DX003 (ip), vehicle: saline 90 % of control

O=C1c2ccccc2C(=O)N1CNCCCNCN1C(=O)c2ccccc2C1=O
inactive: [5] 93 % of control | [6] 95 % of control | [7] 96 % of control

O=C(CNC(=O)c1ccccc1)Nc1ccc([N+](=O)[O-])cc1
inactive: [8] 100 % of control | [9] 100 % of control | [10] 94 % of control

CCC[CH2][Sn]([CH2]CCC)=[N]S(=O)(=O)c1ccc(Cl)c(C)c1
inactive: endpoint: mean survival time, dose: 5.0 mg/kg/injection, schedule: Q01DX001 (ip), vehicle: saline 98 % of control | endpoint: mean survival time, dose: 10.0 mg/kg/injection, schedule: Q01DX001 (ip), vehicle: saline 98 % of control | endpoint: mean survival time, dose: 20.0 mg/kg/injection, schedule: Q01DX001 (ip), vehicle: saline 109 % of control

NC12CC3CC(C1)CC(F)(C3)C2
inactive: [11] 101 % of control | [2] 99 % of control | [3] 101 % of control | [4] 93 % of control

[Cl][Pt][Cl].c1ccc([PH+](c2ccccc2)C2CCCCC2)cc1.c1ccc([PH+](c2ccccc2)C2CCCCC2)cc1
inactive: endpoint: mean survival time, dose: 6.25 mg/kg/injection, schedule: Q04DX003 (ip), vehicle: water 96 % of control | endpoint: mean survival time, dose: 12.5 mg/kg/injection, schedule: Q04DX003 (ip), vehicle: water 98 % of control | endpoint: mean survival time, dose: 25.0 mg/kg/injection, schedule: Q04DX003 (ip), vehicle: water 96 % of control | endpoint: mean survival time, dose: 50.0 mg/kg/injection, schedule: Q04DX003 (ip), vehicle: water 98 % of control

CCOc1ccc(Nc2ncnc3nc[nH]c23)cc1CN(CCCl)C(C)CCl (centres undefined)
inactive: endpoint: mean survival time, dose: 1.0 mg/kg/injection, schedule: Q01DX Z (ip), vehicle: saline 112 % of control | endpoint: mean survival time, dose: 2.0 mg/kg/injection, schedule: Q01DX Z (ip), vehicle: saline 111 % of control | endpoint: mean survival time, dose: 4.0 mg/kg/injection, schedule: Q01DX Z (ip), vehicle: saline 97 % of control

CNCC(=O)NC(CO)C(=O)NC1C(C(N)=O)OC(n2ccc(N)nc2=O)C(O)C1O (centres undefined)
inactive: endpoint: median survival time, dose: 0.75 mg/kg/injection, schedule: Q04DX003 (ip), vehicle: saline 96 % of control | endpoint: median survival time, dose: 1.5 mg/kg/injection, schedule: Q04DX003 (ip), vehicle: saline 101 % of control | endpoint: median survival time, dose: 3.0 mg/kg/injection, schedule: Q04DX003 (ip), vehicle: saline 94 % of control

Cc1nn(C)c(N)c1C#N
inactive: endpoint: mean survival time, dose: 25.0 mg/kg/injection, schedule: Q01DX009 (ip), vehicle: saline 97 % of control | [11] 97 % of control | [12] 107 % of control | [2] 111 % of control | [13] 104 % of control | [3] 106 % of control | [14] 104 % of control | [4] 100 % of control

C#CCN1CCC2=C(C1)c1c(O)cc(C(C)C(C)CCCCC)cc1OC2(C)C (centres undefined)
inactive: [12] 95 % of control | [13] 92 % of control | [14] 103 % of control

CCC(=O)NC(N)=S
inactive: [15] 96 % of control | [16] 94 % of control

CCOC(=O)c1ccc(NCC2=Nc3c(N)nc(N)nc3NC2)cc1
inactive: endpoint: mean survival time, dose: 3.0 mg/kg/injection, schedule: Q01DX009 (ip), vehicle: Klucel (hydroxypropylcellulose) (HPC) 92 % of control | endpoint: mean survival time, dose: 6.0 mg/kg/injection, schedule: Q01DX009 (ip), vehicle: Klucel (hydroxypropylcellulose) (HPC) 97 % of control | endpoint: mean survival time, dose: 12.0 mg/kg/injection, schedule: Q01DX009 (ip), vehicle: Klucel (hydroxypropylcellulose) (HPC) 101 % of control and 108 % of control | [15] 97 % of control | [16] 90 % of control | [17] 89 % of control

CC(=O)CC(C)=Nc1ccc([N+](=O)[O-])cc1
inactive: [5] 101 % of control | [6] 103 % of control | [7] 89 % of control

COc1ccc(CCN(CC(=O)O)S(=O)(=O)c2ccc(C)cc2)cc1OC
inactive: [8] 91 % of control | [9] 100 % of control | [10] 100 % of control

COc1c(OC)c2c3c(c(-c4c(C)cc5c(C(C)C)c(OC)c(OC)c6c5c4OC6OC)c(C)cc3c1C(C)C)OC2OC (centres undefined)
inactive: [17] 102 % of control | [18] 102 % of control | endpoint: mean survival time, dose: 400.0 mg/kg/injection, schedule: Q01DX009 (ip), vehicle: Klucel (hydroxypropylcellulose) (HPC) 107 % of control

CCCCCCCC(=O)N1CCCC1C(=O)NCCCCC(=O)O (centres undefined)
inactive: endpoint: mean survival time, dose: 25.0 mg/kg/injection, schedule: Q01DX001 (ip), vehicle: saline 95 % of control | endpoint: mean survival time, dose: 50.0 mg/kg/injection, schedule: Q01DX001 (ip), vehicle: saline 98 % of control | [8] 95 % of control

C1=CC23C4CCC2C2C4C4C(=C1)C3C2N1CCCCC41 (centres undefined)
inactive: endpoint: mean survival time, dose: 12.5 mg/kg/injection, schedule: Q04DX003 (ip), vehicle: Klucel (hydroxypropylcellulose) (HPC) 98 % of control | [15] 105 % of control | endpoint: mean survival time, dose: 25.0 mg/kg/injection, schedule: Q04DX003 (ip), vehicle: Klucel (hydroxypropylcellulose) (HPC) 104 % of control | [16] 103 % of control | endpoint: mean survival time, dose: 50.0 mg/kg/injection, schedule: Q04DX003 (ip), vehicle: Klucel (hydroxypropylcellulose) (HPC) 96 % of control | [19] 107 % of control

Oc1ccc(N=Cc2ccc(C=Nc3ccc(O)cc3)cc2)cc1
inactive: endpoint: mean survival time, dose: 100.0 mg/kg/injection, schedule: Q01DX009 (ip), vehicle: saline with Tween-80 106 % of control | [5] 112 % of control | endpoint: mean survival time, dose: 200.0 mg/kg/injection, schedule: Q01DX009 (ip), vehicle: saline with Tween-80 100 % of control | [6] 100 % of control | endpoint: mean survival time, dose: 400.0 mg/kg/injection, schedule: Q01DX009 (ip), vehicle: saline with Tween-80 105 % of control | [7] 100 % of control

CC(=O)NC1CCC(CC(=O)O)CC1 (centres undefined)
inactive: [12] 94 % of control and 96 % of control | [17] 98 % of control | [19] 92 % of control | [13] 94 % of control and 102 % of control | [18] 87 % of control | [1] 99 % of control | [14] 91 % of control and 94 % of control | endpoint: mean survival time, dose: 400.0 mg/kg/injection, schedule: Q04DX003 (ip), vehicle: Klucel (hydroxypropylcellulose) (HPC) 95 % of control
